Reference: the NIST ThermoML archive (doi:10.1016/j.tca.2017.07.003)
± gives the expanded uncertainty stated by the source.

Conditions: Crystal; DTA

| Normal melting temperature | Compound |
| --- | --- |
| 229.00 ± 1 °C | CCCCNC(=O)c1cc(C(=O)NCCCC)cc(C(=O)NCCCC)c1 [N,N',N''-tributyl-1,3,5-benzenetricarboxamide] |
| 304.00 ± 1 °C | CC(C)(C)NC(=O)c1cc(C(=O)NC(C)(C)C)cc(C(=O)NC(C)(C)C)c1 [N,N',N''-tris(tert-butyl)-1,3,5-benzenetricarboxamide] |
| 300.00 ± 1 °C | CC(C)CNC(=O)c1cc(C(=O)NCC(C)C)cc(C(=O)NCC(C)C)c1 [N,N',N''-tris(2-methylpropyl)-1,3,5-benzenetricarboxamide] |
